This note sets out measurements from patent publication US7411003B1, “Inhibition of Hepatitis B virus by cyclohexenone compounds from Antrodia camphorata” (Golden Biotechnology Corporation, priority 2007, dated 2008).

The structures appear in SMILES notation.

The subject of test [1] is hepatoma cell line HepG2 2.2.15. In words: In vitro cytotoxic test on hepatoma cell line, MTT assay, survival rates. The following applies: HepG2 2.2.1 cells, 10 μg/ml, 22 hours, compared with blank group. The test is classed as cell-based, human. The method, then: Hepatoma cell inhibiting effects of cyclohexenone compounds of Antrodia camphorata from example 1 were assessed according to the anticancer-drug screening model of National Cancer Institute (NCI). The compound 4-hydroxy-2,3-dimethoxy-6-methyl-5(3,7,11-trimethyl-dodeca-2,6,10-trienyl)-cyclohex-2-enone from example 1 was added into the culture media of hepatoma cell line HepG2 2.2.15 to test the survival rates. Survival of cells was analyzed using MTT assay. HepG2 2.2.15 cell line was derived from human hepatoma, which can secrete infectious HBV.
MTT assay is commonly used to analyze cell proliferation, survival rate of viable cells and cytotoxicity. MTT (3[4,5-dimethylthiazol-2-yl]-2,5-diphenyltetrazolium bromide) is a yellow dye which can be converted to water-insoluble purple formazan on the reductive cleavage of its tetrazolium ring by the succinate tetrazolium reductase in mitrochondria of cells. The amount of formazan produced is used to detect the number of viable cells and calculate the survival rates.
The HepG2 2.2.1 cells were cultivated in minimum essential medium (MEM, Gibco Co., USA) containing 12 essential amino acids, glutamine, 8 vitamins, and supplemented with 10% fetal bovine serum and 200 μg/ml of antibiotic G418 for 24 hours. […] The absorbances were measured at 570 nm with an ELISA Reader and compared with that of the blank group to calculate the survival rates.
(Tetrazolium assays rely on reduction of a dye to a coloured formazan, in cell work by metabolically active cells.)

Test [2] deals with HbsAg. In words: Synthesis/secretion of HbsAg in hepatoma cell line, semi-quantitative ELISA. The following applies: HepG2 2.2.1 cells, 22 hours. The test is classed as cell-based, hepatitis B virus. Here is the method: (§1) The effects of cyclohexenone compounds of Antrodia camphorata purified from Example 1 on synthesis of HbsAg and HbeAg were tested in this example. The compound 4-hydroxy-2,3-dimethoxy-6-methyl-5(3,7,11-trimethyl-dodeca-2,6,10-trienyl)-cyclohex-2-enone from example 1 was added into the culture media of hepatoma cell line HepG2 2.2.1 to determine the synthesis of HbsAg and HbeAg with the semi-quantitative enzyme-linked immunoabsorbent assay (ELISA). These two makers were used to assess the effectiveness of cyclohexenone in HBV inhibition. […]
(§2) The HepG2 2.2.1 cells were cultivated in minimum essential medium (MEM, Gibco Co., USA) containing 12 essential amino acids, glutamine, 8 vitamins, and supplemented with 10% fetal bovine serum and 200 μg/ml of antibiotic G418 for 24 hours. […] The assay was based on formation of sandwich complexes of antibody-antigen-antibody/enzyme and stained with O-phenylenediamine (OPD) color development solution and the results were expressed as absorbance units at 450 nm. Specimens with absorbance values above the cut off value are taken as positive for HbsAg and HBeAg. […]
A general note: In an ELISA, binding on a coated surface is turned into a signal by an enzyme label.

Test [3] concerns HbeAg. Kind of test: Synthesis/secretion of HbeAg in hepatoma cell line, semi-quantitative ELISA. The format is cell-based, hepatitis B virus. The following applies: HepG2 2.2.1 cells, 22 hours. Here is the method: as §1, §2

For the molecule `COC1=C(OC)C(O)C(C/C=C(\C)CC/C=C(\C)CCC=C(C)C)C(C)C1=O` (centres unmarked) [cyclohexenone from Antrodia camphorata, 4-hydroxy-2,3-dimethoxy-6-methyl-5(3,7,11-trimethyl-dodeca-2,6,10-trienyl)-cyclohex-2-enone], in test [1], the cell survival rates entry is given as “lower than 81%”. Also, in test [2] (0.1 μg/ml), the “Synthesis of HbsAg” value is reported as “below 60%”. In addition, the “Synthesis of HbsAg (decrease could reach to as low as)” value in test [2] (10 μg/ml) is reported as 28%. The “Synthesis of HbeAg” value in test [3] (0.1 μg/ml) is listed as “below 84%”. In addition, in test [3] (1 μg/ml), the “Synthesis of HbeAg (decrease could reach to as low as)” value is reported as 57%.
